# Assay results as given in PubChem BioAssay AID256 (DTP/NCI, 2004).
# Toxic doses and inconclusive results are not listed.
# System: CD2F1 mice, L1210 leukemia ip, survival T/C
# Assay: NCI In Vivo Anticancer Drug Screen. Data for tumor model L1210 Leukemia (intraperitoneal) in CD2F1 (CDF1) mice
# Conditions: endpoint: mean survival time, higher = longer survival
# Procedure, shortened: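 Mice carrying a transplanted tumor received test compound or vehicle alone. The value is the measurement in the treated group divided by that in the vehicle-treated control group.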
# [1] = dose: 100.0 mg/kg/injection, schedule: Q01DX009 (ip), vehicle: saline with Tween-80
# [2] = dose: 200.0 mg/kg/injection, schedule: Q01DX009 (ip), vehicle: saline with Tween-80
# [3] = dose: 400.0 mg/kg/injection, schedule: Q01DX009 (ip), vehicle: saline with Tween-80
# [4] = dose: 100.0 mg/kg/injection, schedule: Q04DX003 (ip), vehicle: saline with Tween-80
# [5] = dose: 100.0 mg/kg/injection, schedule: Q04DX003 (ip), vehicle: Klucel (hydroxypropylcellulose) (HPC)
# [6] = dose: 200.0 mg/kg/injection, schedule: Q04DX003 (ip), vehicle: Klucel (hydroxypropylcellulose) (HPC)
compound,measurement,setting,value
CC(=O)C(C)(C)N(C)c1ccccc1,T/C,"dose: 100.0 mg/kg/injection, schedule: Q04DX003 (ip), vehicle: saline",97 % of control
same,T/C,"dose: 200.0 mg/kg/injection, schedule: Q04DX003 (ip), vehicle: saline",93 % of control
same,T/C,"dose: 400.0 mg/kg/injection, schedule: Q04DX003 (ip), vehicle: saline",93 % of control
c1ccc(Oc2cc[c]([Sn]([c]3ccccc3)([c]3ccccc3)[c]3ccc(Oc4ccccc4)cc3)cc2)cc1,T/C,[1],106 % of control
same,T/C,[2],100 % of control
same,T/C,[3],98 % of control
OC(CCl)Cc1ccccc1 (stereo not given),T/C,[4],95 % of control
O=C1CN=C(c2ccccn2)c2cc(Cl)ccc2N1,T/C,"dose: 267.0 mg/kg/injection, schedule: Q01DX009 (ip), vehicle: saline with Tween-80",92 % of control
same,T/C,[3],92 % of control
CC(CC=O)P(=O)(c1ccccc1)c1ccccc1 (stereo not given),T/C,[1],94 % of control
same,T/C,[4],94 % of control
same,T/C,[2],92 % of control
same,T/C,"dose: 200.0 mg/kg/injection, schedule: Q04DX003 (ip), vehicle: saline with Tween-80",91 % of control
same,T/C,[3],95 % of control
same,T/C,"dose: 400.0 mg/kg/injection, schedule: Q04DX003 (ip), vehicle: saline with Tween-80",91 % of control
CC(C)C(C=O)C(O)(C(F)(F)F)C(F)(F)Cl (stereo not given),T/C,[4],91 % of control
CCC(Cc1ccccc1)C1=NC(C)(C)CC(C)O1 (stereo not given),T/C,"dose: 100.0 mg/kg/injection, schedule: Q01DX001 (ip), vehicle: saline with Tween-80",97 % of control
same,T/C,"dose: 200.0 mg/kg/injection, schedule: Q01DX001 (ip), vehicle: saline with Tween-80",89 % of control
O=C1NC2(CCCC2)C(=O)N2CCCC12 (stereo not given),T/C,"dose: 50.0 mg/kg/injection, schedule: Q04DX003 (ip), vehicle: Klucel (hydroxypropylcellulose) (HPC)",93 % of control
same,T/C,[5],93 % of control
same,T/C,[6],97 % of control
CC12CCC(C(=O)C1)C1(C)CCCC(=O)C21 (stereo not given),T/C,"dose: 75.0 mg/kg/injection, schedule: Q01DX001 (ip), vehicle: other",97 % of control
O=C1CSc2ccccc2N1CCN1C(=O)CSc2ccccc21,T/C,[5],90 % of control
same,T/C,[6],86 % of control
same,T/C,"dose: 400.0 mg/kg/injection, schedule: Q04DX003 (ip), vehicle: Klucel (hydroxypropylcellulose) (HPC)",86 % of control
